Reference: ChEMBL document CHEMBL4000186, “Design and synthesis of novel 2-substituted 11-keto-boswellic acid heterocyclic derivatives as anti-prostate cancer agents with Pin1 inhibition ability” (Eur J Med Chem, 2017)

Tests used:
PC-3 [1] = assay: Induction of apoptosis in human PC3 cells assessed as induction of NOXA expression measured after 24 hrs by Western blot method; type: functional, cell-based
PC-3 [2] = assay: Cell cycle arrest in human PC3 cells assessed as accumulation at G0/G1 phase at 2.5 uM after 12 hrs by propidium iodide staining based flow cytometry (reference value: 65.6 %); type: functional
PC-3 [3] = assay: Cell cycle arrest in human PC3 cells assessed as accumulation at G0/G1 phase at 2.5 uM after 24 hrs by propidium iodide staining based flow cytometry (reference value: 63.9 %); type: functional
PC-3 [4] = assay: Cell cycle arrest in human PC3 cells assessed as accumulation at G2/M phase at 1 uM after 12 hrs by propidium iodide staining based flow cytometry (reference value: 22.4 %); type: functional
PC-3 [5] = assay: Induction of apoptosis in human PC3 cells assessed as downregulation of c-FLIP expression measured after 24 hrs by Western blot method; type: functional, cell-based
PC-3 [6] = assay: Cell cycle arrest in human PC3 cells assessed as accumulation at sub G1 phase at 5 uM after 12 hrs by propidium iodide staining based flow cytometry (reference value: 1.6 %); type: functional
[7] = target: T1, Peptidyl-prolyl cis-trans isomerase NIMA-interacting 1 (Homo sapiens, UniProt Q13526); assay: Inhibition of Pin1 in human PC3 cells assessed as downregulation of cyclin D1 expression measured after 24 hrs by Western blot method; type: cell-based
PC-3 [8] = assay: Cell cycle arrest in human PC3 cells assessed as accumulation at sub G1 phase at 2.5 uM after 24 hrs by propidium iodide staining based flow cytometry (reference value: 1.9 %); type: functional
PC-3 [9] = assay: Induction of apoptosis in human PC3 cells assessed as decrease in pro-caspase 3 level measured after 24 hrs by Western blot method; type: functional, cell-based
PC-3 [10] = assay: Cell cycle arrest in human PC3 cells assessed as accumulation at G0/G1 phase at 5 uM after 24 hrs by propidium iodide staining based flow cytometry (reference value: 63.9 %); type: functional
PC-3 [11] = assay: Induction of apoptosis in human PC3 cells assessed as downregulation of Mcl-1 expression measured after 24 hrs by Western blot method; type: functional, cell-based
PC-3 [12] = assay: Cell cycle arrest in human PC3 cells assessed as accumulation at sub G1 phase at 5 uM after 24 hrs by propidium iodide staining based flow cytometry (reference value: 1.9 %); type: functional
PC-3 [13] = assay: Cell cycle arrest in human PC3 cells assessed as accumulation at sub G1 phase at 2.5 uM after 12 hrs by propidium iodide staining based flow cytometry (reference value: 1.6 %); type: functional
PC-3 [14] = assay: Anti-proliferative activity against human PC3 cells measured after 96 hrs by MTT assay; type: functional; conditions: PC-3, 96 h
PC-3 [15] = assay: Cell cycle arrest in human PC3 cells assessed as accumulation at G0/G1 phase at 1 uM after 12 hrs by propidium iodide staining based flow cytometry (reference value: 65.6 %); type: functional
PC-3 [16] = assay: Cell cycle arrest in human PC3 cells assessed as accumulation at G0/G1 phase at 5 uM after 12 hrs by propidium iodide staining based flow cytometry (reference value: 65.6 %); type: functional
PC-3 [17] = assay: Cell cycle arrest in human PC3 cells assessed as accumulation at G0/G1 phase at 1 uM after 24 hrs by propidium iodide staining based flow cytometry (reference value: 63.9 %); type: functional
PC-3 [18] = assay: Cell cycle arrest in human PC3 cells assessed as accumulation at G2/M phase at 5 uM after 12 hrs by propidium iodide staining based flow cytometry (reference value: 22.4 %); type: functional
PC-3 [19] = assay: Cell cycle arrest in human PC3 cells assessed as accumulation at sub G1 phase at 1 uM after 12 hrs by propidium iodide staining based flow cytometry (reference value: 1.6 %); type: functional
PC-3 [20] = assay: Cell cycle arrest in human PC3 cells assessed as accumulation at G2/M phase at 1 uM after 24 hrs by propidium iodide staining based flow cytometry (reference value: 22.7 %); type: functional
PC-3 [21] = assay: Cell cycle arrest in human PC3 cells assessed as accumulation at G2/M phase at 5 uM after 24 hrs by propidium iodide staining based flow cytometry (reference value: 22.7 %); type: functional
PC-3 [22] = assay: Cell cycle arrest in human PC3 cells assessed as accumulation at G2/M phase at 2.5 uM after 24 hrs by propidium iodide staining based flow cytometry (reference value: 22.7 %); type: functional
PC-3 [23] = assay: Induction of apoptosis in human PC3 cells assessed as decrease in pro-caspase 8 level measured after 24 hrs by Western blot method; type: functional, cell-based
PC-3 [24] = assay: Cell cycle arrest in human PC3 cells assessed as accumulation at sub G1 phase at 1 uM after 24 hrs by propidium iodide staining based flow cytometry (reference value: 1.9 %); type: functional
[25] = target: T1, Peptidyl-prolyl cis-trans isomerase NIMA-interacting 1; assay: Inhibition of Pin1 (unknown origin) using Suc-Ala-Glu-cis-Pro-Phe-4-nitroanilide as substrate preincubated for 30 mins followed by substrate addition measured for 90 secs by protease-enzyme coupled assay
PC-3 [26] = assay: Cell cycle arrest in human PC3 cells assessed as accumulation at G2/M phase at 2.5 uM after 12 hrs by propidium iodide staining based flow cytometry (reference value: 22.4 %); type: functional
PC-3 [27] = assay: Induction of apoptosis in human PC3 cells assessed as decrease in pro-caspase 9 level measured after 24 hrs by Western blot method; type: functional, cell-based
LNCaP = assay: Anti-proliferative activity against human LNCAP cells measured after 96 hrs by MTT assay; type: functional

T1 sequence (Q13526 whole entry): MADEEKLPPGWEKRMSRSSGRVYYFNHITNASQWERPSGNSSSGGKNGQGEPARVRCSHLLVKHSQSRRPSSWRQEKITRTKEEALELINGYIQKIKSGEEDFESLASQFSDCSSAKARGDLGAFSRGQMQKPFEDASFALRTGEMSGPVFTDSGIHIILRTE

Q: Which Activity (PC-3 [1]) does the source give for `C[C@H]1[C@H](C)CC[C@]2(C)CC[C@]3(C)C(=CC(=O)[C@@H]4[C@@]5(C)C=C(C#N)C(=O)[C@](C)(C(=O)N6CCNCC6)[C@@H]5CC[C@]43C)[C@H]12` here?
A: Dose-dependent effect

Q: And the Activity (PC-3 [2])?
A: 52.2%

Q: What about the Activity (PC-3 [3]) of the same compound?
A: 33.7%

Q: And the Activity (PC-3 [4])?
A: 26.1%

Q: And the Activity (PC-3 [5])?
A: Dose-dependent effect

Q: And the Activity (PC-3 [6])?
A: 19.5%

Q: And the inhibition [7]?
A: Dose-dependent effect

Q: And the Activity (PC-3 [8])?
A: 34.6%

Q: What about the Activity (PC-3 [9]) of the same compound?
A: Dose-dependent effect

Q: And the Activity (PC-3 [10])?
A: 3.7%

Q: And the Activity (PC-3 [11])?
A: Dose-dependent effect

Q: And the Activity (PC-3 [12])?
A: 88.1%

Q: What about the Activity (PC-3 [13]) of the same compound?
A: 10.2%

Q: And the GI50 (PC-3 [14])?
A: 40 nM

Q: And the Activity (PC-3 [15])?
A: 58.5%

Q: And the Activity (PC-3 [16])?
A: 47.8%

Q: And the Activity (PC-3 [17])?
A: 45.4%

Q: And the Activity (PC-3 [18])?
A: 22.8%

Q: What about the Activity (PC-3 [19]) of the same compound?
A: 2.7%

Q: What about the Activity (PC-3 [20]) of the same compound?
A: 29.7%

Q: What about the Activity (PC-3 [21]) of the same compound?
A: 1.8%

Q: What about the Activity (PC-3 [22]) of the same compound?
A: 22%

Q: What about the Activity (PC-3 [23]) of the same compound?
A: Dose-dependent effect

Q: What about the Activity (PC-3 [24]) of the same compound?
A: 8%

Q: And the IC50 [25]?
A: 3570 nM

Q: And the Activity (PC-3 [26])?
A: 27.6%

Q: And the Activity (PC-3 [27])?
A: Dose-dependent effect

Q: And the GI50 (LNCaP)?
A: 270 nM
